Data published in publication PMC4232510, “Identification of Functionally Important Residues of the Rat P2X4 Receptor by Alanine Scanning Mutagenesis of the Dorsal Fin and Left Flipper Domains” (PLoS ONE, 2014).

Tests used:
P2X2R N202A = system: P2X2R N202A; design: method as in PMID 10940304; key: n.f.: non-functional mutants; ↑: mutant with significant increased EC50 in comparison to WT (values represent fold increase); ≈: close to WT receptor; D: affected time-constant of the desensitizing current response; details: cited from earlier work
P2X1R P287C = system: P2X1R P287C; design: method as in PMID 17428985; key: n.f.: non-functional mutants; ↑: mutant with significant increased EC50 in comparison to WT (values represent fold increase); ≈: close to WT receptor; D: affected time-constant of the desensitizing current response; details: cited from earlier work
P2X3R E197A = system: P2X3R E197A; design: method as in PMID 15475563; key: n.f.: non-functional mutants; ↑: mutant with significant increased EC50 in comparison to WT (values represent fold increase); ≈: close to WT receptor; D: affected time-constant of the desensitizing current response; details: cited from earlier work
rP2X4R N204A mutant = biological target: T1, rP2X4R N204A mutant (Rattus norvegicus, UniProt P51577, N204A); type: cell-based
T1 construct: expressed in transfected cells; host or cells: HEK293T
T1 sequence (P51577 whole entry N204A): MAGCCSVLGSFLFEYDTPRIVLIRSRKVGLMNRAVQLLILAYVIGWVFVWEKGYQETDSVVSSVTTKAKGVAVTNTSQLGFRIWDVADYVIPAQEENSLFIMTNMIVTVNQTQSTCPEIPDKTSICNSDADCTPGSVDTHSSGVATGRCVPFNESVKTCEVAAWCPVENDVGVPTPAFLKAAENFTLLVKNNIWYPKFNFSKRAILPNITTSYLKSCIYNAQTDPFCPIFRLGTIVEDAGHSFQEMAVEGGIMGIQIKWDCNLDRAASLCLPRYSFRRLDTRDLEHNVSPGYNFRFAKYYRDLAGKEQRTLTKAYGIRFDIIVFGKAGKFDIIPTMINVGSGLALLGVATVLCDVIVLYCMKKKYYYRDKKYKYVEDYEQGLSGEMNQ
Procedure: To express the recombinant channels, we used human embryonic kidney (HEK) 293T cells (American Type Culture Collection, Rockville, MD, USA) grown in Dulbecco modified Eagle’s medium (Thermo Fisher Scientific, Waltham, MA) supplemented with 10% fetal bovine serum (Sigma-Aldrich, St Louis, MO), 50 U/ml penicillin and 50 µg/ml streptomycin (both Thermo Fisher Scientific, Waltham, MA) in a humidified 5% CO2 and 95% air at 37°C. Cells were cultured in 75 cm^2 plastic culture flasks (NUNC, Rochester, NY) for 36–72 hours until reaching 80–95% confluence. Before the day of transfection, the cells were plated on 35 mm culture dishes (Sarstedt, Newton, NC) and incubated at 37°C for at least 24 h. […] Transfected cells were identified by the fluorescence signal of EGFP using the Olympus IX71 inverted research microscope with fluorescence illuminators (Model IX71; Olympus, Melville, NY). […]
ATP-induced currents were recorded from whole cells clamped to −60 mV using an Axopatch 200B patch-clamp amplifier (Axon Instruments, Union City, CA). […] Potency of ATP was measured based on the activation of naïve (not previously stimulated) receptors using a short (2–5 s) application of various concentrations of ATP. […] One or two responses were recorded from one cell, if not otherwise stated, and responses from different cells were pooled. […]

P2X1R N290A = system: P2X1R N290A; design: method as in PMID 16371009; details: cited from earlier work
P2X3R M200C = system: P2X3R M200C; design: method as in PMID 24989924; details: cited from earlier work
P2X1R N204A = system: P2X1R N204A; design: method as in PMID 16371009; details: cited from earlier work
rP2X4R N293A mutant = biological target: T2, rP2X4R N293A mutant (Rattus norvegicus, UniProt P51577, N293A); assay: whole-cell patch clamp, HEK293T cells expressing mutant; type: cell-based
T2 construct: expressed in transfected cells; host or cells: HEK293T
T2 sequence (P51577 whole entry N293A): as the sequence (P51577 whole entry N204A) above, with A204N, N293A counted along it

rP2X4R R203A mutant = biological target: T3, rP2X4R R203A mutant (Rattus norvegicus, UniProt P51577, R203A); assay: as above; type: cell-based
T3 construct: expressed in transfected cells; host or cells: HEK293T
T3 sequence (P51577 whole entry R203A): as the sequence (P51577 whole entry N204A) above, with R203A, A204N counted along it

P2X4R V288A = system: P2X4R V288A; design: method as in PMID 24943126; details: cited from earlier work
P2X4R H286A = system: P2X4R H286A; design: method as in PMID 17663752, PMID 15632318, PMID 12819199, PMID 15246547; details: cited from earlier work
P2X3R T196A = system: P2X3R T196A; design: method as in PMID 16226373; key: n.f.: non-functional mutants; ↑: mutant with significant increased EC50 in comparison to WT (values represent fold increase); ≈: close to WT receptor; D: affected time-constant of the desensitizing current response; details: cited from earlier work
[1] = decay after removal of 1 or 3 µM ATP, 3 µM IVM

Nc1ncnc2c1ncn2[C@@H]1O[C@H](COP(=O)(O)OP(=O)(O)OP(=O)(O)O)[C@@H](O)[C@H]1O [ATP]
change in EC50 for ATP (P2X2R N202A): N202A: n.f.[6] | change in EC50 for ATP (P2X1R P287C): P287C: ≈[9] | change in desensitization (P2X3R E197A): E197A: D[53] | Imax+IVM (rP2X4R N204A mutant; ATP after 3 µM IVM 4-6 min): 2.5 ± 0.4 nA | τoff +IVM (rP2X4R N204A mutant; [1]): 5.2 ± 0.6 s | fold increase of EC50 for ATP in comparison to WT (P2X1R N290A): N290A: ↑>50x[45] | fold increase of EC50 for ATP in comparison to WT (P2X3R M200C): M200C:↑8x[58] | fold increase of EC50 for ATP in comparison to WT (P2X1R N204A): N204A: ↑3,5x[45] | Imax+IVM (rP2X4R N293A mutant; ATP after 3 µM IVM 4-6 min): 2.0 ±0.5 nA | τoff +IVM (rP2X4R N293A mutant; [1]): 2.8 ± 0.2 s | Imax+IVM (rP2X4R R203A mutant; ATP after 3 µM IVM 4-6 min): 2.9 ± 0.6 nA | τoff +IVM (rP2X4R R203A mutant; [1]): 4.6 ± 0.3 s | fold increase of EC50 for ATP in comparison to WT (P2X4R V288A): V288A: ↑2x[49] | fold increase of EC50 for ATP in comparison to WT (P2X4R H286A): H286A: ↑2–4x[10], [52], [57], [60] | change in EC50 for ATP (P2X3R T196A): T196A: ≈[54]
